Results on two molecules are retold here after patent US12473537B2, “Three-dimensional cell culture, devices, and use thereof” (THE BROAD INSTITUTE, INC., priority 2020, dated 2025).

Format in all cases: cell-based, human
For series [1], the system named is pancreatic progenitor cells. Nature of the series: Notch inhibition in DP, immunocytochemical staining for Pdx-1 and Nkx6.1. Conditions: 10 μM, S4d5. The text has this: Next, Applicant further examined whether other junction signaling pathways critical for β-cell differentiation, such as the Notch signaling pathway, could be supported in the DP, as Notch inhibition in pancreatic progenitor cells is known to promote differentiation into the endocrine lineage and β-cell production. To measure this in the DP, Applicant supplemented the differentiation protocol of pancreatic progenitor cells with Notch inhibitor (NI) [γ-secretase inhibitor, N—[N-(3,5-Difluorophenacetyl)-L-alanyl]-S-phenylglycine t-butyl ester (DAPT) (10 μM)] and examined the cells at the end of pancreatic progenitor cells (stage 4 day 5 (S4d5)) by immunocytochemistry and gene expression analysis (FIGS. 8A-8D). […] Upon establishing the differentiation capabilities of the DP, Applicant then reasoned whether differentiated SC β cells also elicited proper insulin secretion functionality. The DP also supported insulin secretion from SC β cells in response to glucose stimulation, and similar secretion indices were noted between DP and SF (FIG. 3J).
Compound treatment. Cells were seeded into the DP and incubated with their respective media as outlined in the section above and allowed to settle for 24 hours (day 1). […] For the dose-cytotoxicity study, cell viability was measured by AlamarBlue™ assay following the manufacturer's protocol (Invitrogen, Carlsbad, CA, USA). […]

For series [2], the system named is Notch signaling. Nature of the series: Notch inhibition in pancreatic progenitor cells in Disque platform (DP), qRT-PCR gene expression. To be noted: 10 μM, 4 days, cells cultured in DP. The text has this: (§1) Next, Applicant further examined whether other junction signaling pathways critical for β-cell differentiation, such as the Notch signaling pathway, could be supported in the DP, as Notch inhibition in pancreatic progenitor cells is known to promote differentiation into the endocrine lineage and β-cell production. To measure this in the DP, Applicant supplemented the differentiation protocol of pancreatic progenitor cells with Notch inhibitor (NI) [γ-secretase inhibitor, N—[N-(3,5-Difluorophenacetyl)-L-alanyl]-S-phenylglycine t-butyl ester (DAPT) (10 μM)] and examined the cells at the end of pancreatic progenitor cells (stage 4 day 5 (S4d5)) by immunocytochemistry and gene expression analysis (FIGS. 8A-8D). […]
(§2) Compound treatment. […] For the dose-cytotoxicity study, cell viability was measured by AlamarBlue™ assay following the manufacturer's protocol (Invitrogen, Carlsbad, CA, USA).
(§3) Gene Expression Analysis. […] The RNA concentration was determined by measuring absorbance at 260 nm using a spectrophotometer. […] The profiles of gene expression in SC β-cells were quantified for each target (human E-cad, CX-36, ZnT8, Pdx-1, Nkx6.1, Insulin, and glyceraldehyde 3-phosphate dehydrogenase (GAPDH), QuantiTect primary assay). The expression level of target genes was determined by the comparative Ct method, whereby the target is normalized to the endogenous reference (GAPDH) 40. […]
Background: In qPCR the cycle at which signal appears reflects the starting amount.

Series [3] has as its system Notch signaling. Put plainly: Notch inhibition in 2D culture, Hes1 gene expression. To be noted: 10 μM.
From the text: as §1, §2, §3

The subject of series [4] is SC β cells. Nature of the series: Dose-cytotoxicity study, AlamarBlue assay. To be noted: 0.032~500 μM. For orientation: Resazurin is reduced to fluorescent resorufin, in cell work by metabolically active cells.
Description: Compound treatment. […] For compound treatment (ZnPDs and small molecule cargos), the media were replaced with new media supplemented with prodrug at different concentrations on day 3 and day 6 for a total treatment of 6 days. Cell analyses was performed after 7 days in culture. […] For the dose-cytotoxicity study, cell viability was measured by AlamarBlue™ assay following the manufacturer's protocol (Invitrogen, Carlsbad, CA, USA).
Cell viability test. To determine the viability of SC β-cells in the DP and SF, a Live/Dead Viability and Cytotoxicity Assay Kit (AlamarBlue™, Invitrogen) were used according to the manufacturer's instructions.
The test system of another series is DYRKIA. Nature of the series: NFAT1 nuclear translocation as readout for DYRKIA inhibition. The protocol: Immunocytochemical staining. The Immunofluorescent staining was performed as previously described in the Flow cytometry section. The additional primary antibodies for immunocytochemical staining were used: rabbit polyclonal anti-NFAT1 (1:500, ab244310, Abcam, Cambridge, MA, USA), mouse monoclonal anti-E-cadherin (1:500, Abcam) and rabbit polyclonal anti-connexin 36 (1:500, Abcam). Secondary antibodies were stained using previously described antibodies noted within the flow cytometry method. Cells were then counter-stained with 4′, 6-Diamidino-2-phenylindole (DAPI, MilliporeSigma, Burlington, MA, USA) or 2,5′-Bi-1H-benzimidazole (Hoechst, Invitrogen). HTS imaging was performed using the Opera Phenix™ High Content Screening System (PerkinElmer, Waltham, MA, USA). Fluorescent and bright-field imaging were performed using the Eclipse TE2000-U (Nikon, Tokyo, Japan). Confocal imaging and z-stack 3D reconstruction were performed using LSM 800 with Airyscan (Zeiss, Oberkochen, Germany). Analysis was performed using ImageJ (NIH) and Adobe Photoshop (Adobe, San Jose, CA, USA) software.

In series [5] the test system is SC β cells. Nature of the series: Proliferation of SC β cells in DP (EdU or Ki67, flow cytometry). The protocol:
Applicant then compared ZnPD6 and harmine over the range of 0.625 to 20 μM based on the percentage of proliferating mature SC β cells using the c-peptide/EdU co-positive metric, wherein EdU is a proliferation marker that identifies cells undergoing DNA replication in the S phase (FIG. 5D). […] Despite releasing the same drug following ZnPD cleavage, Applicant were interested in determining what caused the difference in cytotoxicity and proliferation between ZnPD6 and unmodified harmine. Applicant then examined harmine and ZnPD6 at their optimal concentrations for proliferation, 10 μM and 20 μM, respectively.
Compound treatment. Cells were seeded into the DP and incubated with their respective media as outlined in the section above and allowed to settle for 24 hours (day 1). For compound treatment (ZnPDs and small molecule cargos), the media were replaced with new media supplemented with prodrug at different concentrations on day 3 and day 6 for a total treatment of 6 days. Cell analyses was performed after 7 days in culture. For targeting study with ZnPD4, cells were treated with ZnPD4 for 2 hours. […] For the dose-cytotoxicity study, cell viability was measured by AlamarBlue™ assay following the manufacturer's protocol (Invitrogen, Carlsbad, CA, USA).
Flow cytometry. […] Cells were analyzed using a BD FACSAria™ II flow cytometer (BD Biosciences, Franklin Lakes, NJ, USA). […]

Consider `C[C@H](NC(=O)Cc1cc(F)cc(F)c1)C(=O)N[C@H](C(=O)OC(C)(C)C)c1ccccc1` [DAPT, N—[N-(3,5-Difluorophenacetyl)-L-alanyl]-S-phenylglycine t-butyl ester], for which, in series [1], the “Pdx-1-positive progenitor cells after Notch inhibition” value was “significantly increased”. Also, the “increase in Pdx-1 expression” value in the series on Notch signaling [2] (S4d5, vs control) is reported as 80%. In the series on Notch signaling [2] (vs control), the “decrease in hairy and enhancer of split-1 (Hes1) expression” value is 71%. The “Hes1 expression response to Notch inhibition” value in the series on Notch signaling [3] was “not responsive”.

For `COc1ccc2c(c1)[nH]c1c(C)nccc12` [harmine], the “concentration above which a cytotoxic effect is seen” value with SC β cells [4] is recorded as “over 10 μM”. In addition, the “NFAT1 nuclear translocation over time, in words” value with DYRKIA (FIG. 5H) is listed as “decreased NFAT1 nuclear translocation after 4 hours”. The values for the NFAT1 nuclear translocation with DYRKIA (at 24 hours) and in the series with DYRKIA (value before the decrease) were 15% and 26%, respectively. For the same molecule, the “population of proliferating monohormonal SC β cells (C-peptide+GCG-EdU+)” value in the series on SC β cells [5] (DP, flow cytometry, compared to DMSO control or negative control) is listed as “statistically significant increase”. Further, the “optimal concentration for proliferation” value in the series with SC β cells [5] (SC β cells in DP) turned out to be 10 µM.
